Data reported in paper PMC5011342, “A high throughput drug screening assay to identify compounds that promote oligodendrocyte differentiation using acutely dissociated and purified oligodendrocyte precursor cells” (BMC Research Notes, 2016).
Like-named read-outs stand apart in the source and are kept apart here.

Experiments:
[1] = test system: acutely dissociated and purified rat OPCs; experiment: Acute OL differentiation assay (MBP expression/cell, immunofluorescent image quantification); assay type: cell-based; settings: sheet "All OLga data"; for OL differentiation, 0.4 uM (% Quet): 0.4 uM test compound; for activation at 0.08 µM / activation at 0.4 µM / activation at 2 µM / activation at 10 µM: Rattus norvegicus; for activation at 0.08 µM: test compound at 0.08 uM, read-out: 0.08 uM (% Quet); for activation at 0.4 µM: read-out: 0.4 uM (% Quet)
Method in brief: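 Oligodendrocyte precursor cells were enriched from P6-P7 Sprague–Dawley rat brains by immunopanning (RAN-2 and GalC depletion, O4 selection), plated at 5000 cells/well in serum-free, mitogen-free differentiation media on PDL/laminin 96-well view plates, centrifuged at 200×g, and pre-incubated 1–2 h before test compounds were added in quadruplicate. On DIV4, cells were fixed, stained for MBP and DAPI, imaged automatically, and MBP expression per cell was quantified.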

expanded OPCs = experiment: cells; settings: for viability at 0.1 µM / viability at 1 µM / viability at 10 µM: Rattus norvegicus, 72 h
Method in brief: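 Expanded OPCs seeded at 10,000 cells/well in differentiation media, then exposed to NCC library compounds at 10, 1 and 0.1 µM (quadruplicate, 0.1% DMSO) for three days. Viability read as alamarBlue fluorescence (560/590 nm) after 4 h at 37 °C; tunicamycin 5 ng/ml served as toxicity control.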

[2] = alamarBlue viability of expanded OPCs, compound at 0.1 µM, sheet All Tox data
[3] = alamarBlue viability of expanded OPCs, compound at 1 µM, sheet All Tox data
[4] = alamarBlue viability of expanded OPCs, compound at 10 µM, sheet All Tox data
[5] = alamarBlue viability of expanded OPCs, compound at 0.1 µM, relative to DMSO control
[6] = alamarBlue viability of expanded OPCs, compound at 1 µM, relative to DMSO control
[7] = alamarBlue viability of expanded OPCs, compound at 10 µM, relative to DMSO control
[8] = 2 uM test compound, relative to quetiapine, read-out: OL differentiation, 2 uM (% Quet)
[9] = 10 uM test compound, relative to quetiapine, read-out: OL differentiation, 10 uM (% Quet)
[10] = read-out: 0.1 µM (% DMSO), alamarBlue viability of expanded OPCs, compound at 0.1 µM, sheet All Tox data
[11] = read-out: 1 µM (% DMSO), alamarBlue viability of expanded OPCs, compound at 1 µM, sheet All Tox data
[12] = read-out: 10 µM (% DMSO), alamarBlue viability of expanded OPCs, compound at 10 µM, sheet All Tox data
[13] = test compound at 0.4 uM, NCC library screen, relative to quetiapine
[14] = NCC library screen, relative to quetiapine
[15] = read-out: 0.1 µM (% DMSO), alamarBlue viability, NCC library compound at 0.1 µM, sheet "All Tox data"
[16] = read-out: 1 µM (% DMSO), alamarBlue viability, NCC library compound at 1 µM, sheet "All Tox data"
[17] = read-out: 10 µM (% DMSO), alamarBlue viability, NCC library compound at 10 µM, sheet "All Tox data"
[18] = test compound at 2 uM, NCC library screen, relative to quetiapine, read-out: 2 uM (% Quet)
[19] = test compound at 10 uM, NCC library screen, relative to quetiapine, read-out: 10 uM (% Quet)

In the case of `CN1CC[C@@H](c2ccc(F)cc2)[C@H](COc2ccc3c(c2)OCO3)C1` [N-Methylparoxetine], the “OL differentiation, 0.4 uM (% Quet)” value ([1]; relative to quetiapine) is reported as -15.7 % Quet, the “OL differentiation, 2 uM (% Quet)” value ([1]; 2 uM test compound, relative to quetiapine) is reported as -45.1 % Quet and the “0.1 µM (% DMSO)” value (expanded OPCs; [2]) is reported as 86.7 % DMSO. The “1 µM (% DMSO)” value (expanded OPCs; [3]) was 60.7 % DMSO and the “10 µM (% DMSO)” value (expanded OPCs; [4]) was 18.7 % DMSO.

`CN1CCN(CC/C=C2/c3ccccc3Sc3ccc(S(=O)(=O)N(C)C)cc32)CC1` [Thiothixene] was tested, and the activation at 0.08 µM ([1]; MBP expression relative to quetiapine, NCC library screen) was 45.9%, the activation at 0.4 µM ([1]; test compound at 0.4 uM, MBP expression relative to quetiapine, NCC library screen) was 24% and the “0.1 µM (% DMSO)” value (expanded OPCs; [5]) was 81.2 % DMSO. The “1 µM (% DMSO)” value (expanded OPCs; [6]) was 49.9 % DMSO and the “10 µM (% DMSO)” value (expanded OPCs; [7]) was 16.9 % DMSO.

With `CCCCC/C=C\C/C=C\C/C=C\C/C=C\CCCC(=O)Nc1ccc(O)cc1` [AM 404] the “OL differentiation, 0.08 uM (% Quet)” value ([1]; 0.08 uM test compound, relative to quetiapine) was -17.8 % Quet, the “OL differentiation, 0.4 uM (% Quet)” value ([1]; relative to quetiapine) was -184.2 % Quet and the “0.1 µM (% DMSO)” value (expanded OPCs; [2]) was 87.9 % DMSO. For the same compound, the “1 µM (% DMSO)” value (expanded OPCs; [3]) was 33.1 % DMSO and the “10 µM (% DMSO)” value (expanded OPCs; [4]) was 11.4 % DMSO.

`c1cnc(N2CCN(Cc3ccc4c(c3)OCO4)CC2)nc1` [Piribedil] was tested, and the activation at 2 µM [1, 8] was 23.4%, the activation at 10 µM [1, 9] was 29.9% and the viability at 0.1 µM (expanded OPCs; [10]) was 88.5%. The viability at 1 µM (expanded OPCs; [11]) was 100% and the viability at 10 µM (expanded OPCs; [12]) was 103%.

With `CC(=O)OCC(=O)[C@@]12OC3(CCCC3)O[C@@H]1C[C@H]1[C@@H]3CCC4=CC(=O)C=C[C@]4(C)[C@@]3(F)[C@@H](O)C[C@@]12C` [Amcinonide] the activation at 2 µM ([1]; test compound at 2 uM, MBP expression relative to quetiapine, NCC library screen, read-out: 2 uM (% Quet)) was 18.1%, the activation at 10 µM ([1]; test compound at 10 uM, MBP expression relative to quetiapine, NCC library screen, read-out: 10 uM (% Quet)) was -10.2% and the “0.1 µM (% DMSO)” value (expanded OPCs; [5]) was 113.8 % DMSO. The “1 µM (% DMSO)” value (expanded OPCs; [6]) was 123.7 % DMSO and the “10 µM (% DMSO)” value (expanded OPCs; [7]) was 114.6 % DMSO.

`O=C(O)C[C@H](O)C[C@H](O)/C=C/c1c(C2CC2)nc2ccccc2c1-c1ccc(F)cc1` [Itavastain] was tested, and the “0.4 uM (% Quet)” value [1, 13] was -60.9 % Quet, the “2 uM (% Quet)” value ([1]; test compound at 2 uM, NCC library screen, relative to quetiapine) was -74.4 % Quet and the “0.1 µM (% DMSO)” value (expanded OPCs; alamarBlue viability, NCC library compound at 0.1 µM, sheet "All Tox data") was 114.3 % DMSO. For the same compound, the “1 µM (% DMSO)” value (expanded OPCs; alamarBlue viability, NCC library compound at 1 µM, sheet "All Tox data") was 70.7 % DMSO and the “10 µM (% DMSO)” value (expanded OPCs; alamarBlue viability, NCC library compound at 10 µM, sheet "All Tox data") was 19.8 % DMSO.

Compound `O=C1c2c(O)cc(O)cc2OC(c2ccc(O)c(O)c2)C1O` (centres unmarked) [Taxifolin] has an activation at 2 µM [1, 8] of -1.7%, an activation at 10 µM [1, 9] of -59% and a viability at 0.1 µM (expanded OPCs; [10]) of 96.4%. It also gave a viability at 1 µM (expanded OPCs; [11]) of 93.7% and a viability at 10 µM (expanded OPCs; [12]) of 88.7%.

With `CN1CCC(=C2c3ccccc3C=Cc3ccccc32)CC1` [Cyproheptadine] the activation at 0.08 µM [1, 14] was -0.6%, the activation at 0.4 µM [1, 13] was 10.3% and the viability at 0.1 µM (expanded OPCs; [15]) was 71.2%. For the same compound, the viability at 1 µM (expanded OPCs; [16]) was 49.3% and the viability at 10 µM (expanded OPCs; [17]) was 25.2%.

`O=C1CN=C(c2ccccc2)c2cc([N+](=O)[O-])ccc2N1` [Nitrazepam] gave an activation at 2 µM [1, 8] of 7.3%, an activation at 10 µM [1, 9] of -25.3% and a viability at 0.1 µM (expanded OPCs; [10]) of 84.2%. The viability at 1 µM (expanded OPCs; [11]) was 88.9% and the viability at 10 µM (expanded OPCs; [12]) was 95%.

`CC(COc1ccccc1)NC(C)C(O)c1ccc(O)cc1` (centres unmarked) [Isoxsuprine] was tested, and the activation at 2 µM [1, 18] was 13.2%, the activation at 10 µM [1, 19] was 2.2% and the “0.1 µM (% DMSO)” value (expanded OPCs; [5]) was 97.2 % DMSO. For the same compound, the “1 µM (% DMSO)” value (expanded OPCs; [6]) was 91.9 % DMSO and the “10 µM (% DMSO)” value (expanded OPCs; [7]) was 60.9 % DMSO.

`CCOC(=O)C1=C(COCCN)NC(C)=C(C(=O)OC)C1c1ccccc1Cl` (centres unmarked) [Amlodipine] was tested, and the activation at 0.08 µM [1, 14] was -17.1%, the activation at 0.4 µM [1, 13] was -39.6% and the viability at 0.1 µM (expanded OPCs; [15]) was 69.7%. For the same compound, the viability at 1 µM (expanded OPCs; [16]) was 22.7% and the viability at 10 µM (expanded OPCs; [17]) was 8.6%.

In the case of `CCN(C(C)=O)c1cccc(-c2ccnc3c(C#N)cnn23)c1` [Zaleplon], the activation at 2 µM [1, 18] is reported as 12.3%, the activation at 10 µM [1, 19] is reported as -15.8% and the viability at 0.1 µM (expanded OPCs; [15]) is reported as 87.8%. For the same compound, the viability at 1 µM (expanded OPCs; [16]) was 86.8% and the viability at 10 µM (expanded OPCs; [17]) was 86.1%.

With `NCCc1ccccn1` [2-(2-aminoethyl)pyridine] the activation at 2 µM [1, 18] was 20.5%, the activation at 10 µM [1, 19] was 16.9% and the viability at 0.1 µM (expanded OPCs; [15]) was 97.5%. The viability at 1 µM (expanded OPCs; [16]) was 81.9% and the viability at 10 µM (expanded OPCs; [17]) was 73.2%.
